This passage reports EC50 and Ki results from patent US20100203012A1, “IAP BIR DOMAIN BINDING COMPOUNDS” (Aegera Therapeutics, Inc., priority 2007, published 2010).

The term EC50 denotes the concentration needed to bring the measured effect to its halfway point. For orientation: Ki means a measure of affinity in units of concentration, obtained from inhibition or displacement.

In one assay the test system is SKOV3 cells. Kind of assay: Cytotoxicity assay (MTT) on SKOV3 cells. It counts as cell-based. Particulars: Homo sapiens, SK-OV-3, 72 hours, single agent. The protocol:
(§1) SKOV3 (ovarian) and HCT-116 (colon) cancer cells were cultured in McCoy's 5A media supplemented with 10% FBS and 100 units/mL of Penicillin and Streptomycin.
(§2) Cytotoxicity assays were performed on various cell lines including SKOV3 and HCT-116 cells. Cells were seeded in 96 well plates at a respective density of 2000 and 5000 cells per well and incubated at 37° C. in presence of 5% CO2 for 24 hours. Selected compounds were diluted into the media at various concentrations ranging from 0.01 nM up to 100 nM. Diluted compounds were added onto the SKOV3 cells. HCT-116 cells were co-treated with Trail receptor monoclonal antibody agonist (HGS-ETR^1, 40 ng/mL). After 72 hours, cellular viability was evaluated by MTT conversion. A solution of 3-(4,5-dimethylthiazol-2-yl)-2,5-diphenyltetrazolium bromide (MTT) was added onto cells for a period of 1 to 4 hours. Media was removed and replaced with isopropanol. Conversion of MTT by viable cells was detected by absorbance at 570 nm. The percentage of viability was expressed in percentage of the signal obtained with non treated cells.

A further assay relates to HCT116 cells. Kind of assay: Cytotoxicity assay (MTT) on HCT-116 cells co-treated with HGS-ETR1. It counts as cell-based. Particulars: Homo sapiens, co-treated with HGS-ETR1 40 ng/mL, 72 hours. The procedure: as §1, §2
The target of assay [1] is T1, XIAP BIR2-BIR3-ring (GST-linker BIR 2 BIR3Ring) (Homo sapiens, UniProt P98170).
T1 construct: made in house; host or cells: Escherichia coli DH5-alpha
Kind of assay: Fluorescence polarization competition assay, BIR2-BIR3-ring, probe P2. It counts as binding. The note with it: ki derived from IC50, read-out: ki in the BIR2-BIR3-ring FP assay. From the text: GST-linker BIR 2 BIR3Ring: XIAP coding sequence from amino acids 93-497 cloned into PGex4T1 via BamH1 and XhoI. Amino acids 93-497 were amplified from full length XIAP in pGex4t3, using the primers: […] and GCTGCATGTGTGTCAGAGG, using standard PCR conditions. The PCR fragment was TA cloned into pCR-2.1 (invitrogen). Linker BIR 2 BIR 3Ring was subcloned into pGex4T1 by BamHI/XhoI digestion. The plasmid was transformed into E. coli DH5α for use in protein expression and purification.
For all assays, the fluorescence and fluorescence-polarization was evaluated using a Tecan Polarion instrument with the excitation filter set at 485 nm and the emission filter set at 535 nm. […] Upon establishing these conditions, the compounds potency (IC50) and selectivity, was assessed in the presence of a fix defined-amount of target protein and fluorescent probe and a 10 point serial dilution of the selected compounds. […] Auto-fluorescence for each compound was first assessed by performing a reading of the compound/BSA solution alone. Then 25 uL of the fluorescein probe (P1 or P2) diluted into 50 mM MES containing 0.05 mg/ml BSA were added and a reading to detect quenching of fluorescein signal done. Finally 25 uL/well of the target or control protein (GST-BIRs) diluted at the appropriate concentration in 50 mM MES containing 0.05 mg/ml BSA were added and the fluorescence polarization evaluated. […]
(In fluorescence polarisation assays a small probe gives low polarisation when free and higher when bound to something large.)

T1 sequence (P98170 93-497): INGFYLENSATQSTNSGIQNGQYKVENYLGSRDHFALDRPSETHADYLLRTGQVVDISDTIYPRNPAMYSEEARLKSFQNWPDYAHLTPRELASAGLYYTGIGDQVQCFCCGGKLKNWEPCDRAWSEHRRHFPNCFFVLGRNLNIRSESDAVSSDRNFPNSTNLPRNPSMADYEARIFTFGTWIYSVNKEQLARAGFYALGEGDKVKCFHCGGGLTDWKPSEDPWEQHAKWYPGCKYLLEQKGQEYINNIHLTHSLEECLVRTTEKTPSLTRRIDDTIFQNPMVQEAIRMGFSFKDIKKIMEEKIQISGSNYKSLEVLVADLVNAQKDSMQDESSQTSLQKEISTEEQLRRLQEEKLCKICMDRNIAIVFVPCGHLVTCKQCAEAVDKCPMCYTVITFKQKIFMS

On to `CN[C@@H](C)C(=O)N[C@H](C(=O)N1CCN(C(=O)c2ccc(C(=O)N3CCN(C(=O)[C@@H](NC(=O)[C@H](C)NC)C(C)(C)C)[C@H](C(=O)N[C@@H]4CCCc5ccccc54)C3)cc2)C[C@H]1C(=O)N[C@@H]1CCCc2ccccc21)C(C)(C)C` [Compound 1], for which the EC50 in the assay on SKOV3 cells and in the assay with HCT116 cells was less than 0.05 µM in each case.
In the case of `CN[C@@H](C)C(=O)N[C@H](C(=O)N1CCN(C(=O)CCCCCCCCC(=O)N2CCN(C(=O)[C@@H](NC(=O)[C@H](C)NC)C(C)(C)C)[C@H](C(=O)N[C@@H]3CCCc4ccccc43)C2)C[C@H]1C(=O)N[C@@H]1CCCc2ccccc21)C(C)(C)C` [Compound 2], the EC50 in the assay with SKOV3 cells and in the assay with HCT116 cells was less than 0.05 µM throughout.
Regarding `CN[C@@H](C)C(=O)N[C@H](C(=O)N1CCN(C(=O)CNC(=O)c2ccc(-c3ccc(C(=O)NCC(=O)N4CCN(C(=O)[C@@H](NC(=O)[C@H](C)NC)C(C)(C)C)[C@H](C(=O)N[C@@H]5CCCc6ccccc65)C4)cc3)cc2)C[C@H]1C(=O)N[C@@H]1CCCc2ccccc21)C(C)(C)C` [Compound 3], the inhibition constant (Ki) in assay [1] was less than 0.1 µM.
